# Test results: US20220304309A1, “IRON COMPLEXES AND USES THEREFOR” (priority 2019, published 2022)
# “Also recorded” adds a separate entry of the source. Like-named read-outs stand apart in the source and are kept apart here.
# How the values were obtained:
# X. campestris = conditions: for A600: 36 hours at 28° C.
# [1] = Fenton activity test with H2O2 and methylene blue
# [2] = Total, ferrous and ferric iron content of the complexes immediately after preparation (1,10-phenanthroline); conditions: 50 mM solution; for Ferric iron: total minus ferrous
# [3] = system: Pectobacterium carotovorum subsp. brasiliense (Pcb); assay: In planta trial on Pcb-infiltrated potato tubers; conditions: weekly foliar spray or root drench
# [4] = Stability of ferrous iron complexes in solution over 180 days; conditions: for Ferrous iron / Total iron: room temperature in the dark; for Stability of solutions of the complex: stored at ambient temperature (TFDC in the dark)
# [5] = Reduction of ferric iron in the ferric tri-pyruvate complex over 10 days; assay type: physicochemical
# Experimental: A 50 mM solution of the ferric tri-pyruvate complex was prepared as described in Example 5. The stability of the complex was measured by determining the total iron, ferrous iron and ferric iron over the course of 10 days.
# spores of B. subtilis = assay: Decontamination of surfaces contaminated with B. subtilis spores; assay type: cell-based, Bacillus subtilis; conditions: swabbing or spraying, optionally mixed with ascorbate and/or hydrogen peroxide
# Experimental: In additional experiments, surfaces that have been intentionally contaminated with spores of B. subtilis are wiped or sprayed with solutions of FDP (e.g., 1 mM, 2 mM, 3 mM, 4 mM, 5 mM, 6 mM, 7 mM, 8 mM, 9 mM, 10 mM, 12.5 mM, 15 mM, 20 mM, 25 mM, 50 mM, 75 mM 100 mM or more); optionally including ascorbate (e.g. 10 mM) and/or hydrogen peroxide at a concentration of, e.g., 1 mM or less, 2 mM or less, 3 mM or less, 4 mM or less, 5 mM or less, 6 mM or less, 7 mM or less, 8 mM or less, 9 mM or less, 10 mM or less, 12.5 mM or less, 15 mM or less, 20 mM or less, 25 mM or less, 30 mM or less, 40 mM or less, 50 mM or less, 60 mM or less, 70 mM or less, 80 mM or less, 90 mM or less, 100 mM or less, 125 mM or less, 150 mM or less, 175 mM or less, or 200 mM or less. The surfaces are then swabbed, the swabs are suspended in water or medium, and CFU are determined by plating aliquots of serial dilutions of the liquid in which the swabs were suspended.
# Bacillus subtilis = assay: Bactericidal and sporicidal activity on Bacillus subtilis cells or spores suspended in water; assay type: cell-based; conditions: increasing concentrations and exposure times; 10 mM sodium ascorbate, sub-inhibitory hydrogen peroxide
# Experimental: Because of its activity as a Fenton reagent, FDP produces reactive oxygen species (e.g. hydroxyl radicals, superoxide radicals) that are toxic to bacterial spores and spore-forming bacteria. […] After exposure to FDP for various periods of time, the number of viable colony-forming units is determined by plating aliquots of serial dilutions of the solutions.
# C. liberibacter spp = assay type: in vivo, rough lemon trees; conditions: 50 μM, foliar or root drench, every three days over three months
# [6] = 1 ml 50 mM complex + 1 ml 40% H2O2, 0.1% (w/v) methylene blue, 1 hour at ambient temperature
# [7] = 60 Days after complex formation
# [8] = 180 Days after complex formation
# [9] = 0 days after complex formation, 50 mM solution
# [10] = 1 day after complex formation, 50 mM solution
# [11] = 7 days after complex formation, 50 mM solution
# [12] = 10 days after complex formation, 50 mM solution
compound,measurement,setting,value
"O=C1O[C@H]([C@@H](O)CO)C([O-])=C1O.[Na+] [ascorbate, sodium ascorbate, reference compound]",A600,"X. campestris; no preincubation, addition 5 mM ascorbate",0.512
O=C([O-])CC(O)(CC(=O)[O-])C(=O)[O-].O=C([O-])CC(O)(CC(=O)[O-])C(=O)[O-].[Fe+2].[Fe+2].[Fe+2] [tri-ferrous di-citrate],"Fenton activity (loss of blue color, brown precipitate)",[1]; [6],exhibited Fenton activity
same,"Fenton activity (loss of blue color, brown precipitate)","[1]; 1 ml 50 mM complex + 1 ml 40% H2O2, 0.1% (w/v) methylene blue, 1 hour at ambient temperature, listed as tri-ferrous di-citrate complex",significant Fenton activity
same,Ferrous iron,[2],49.7 mM
same,Total iron,[2],50 mM
same,Ferric iron,[2],<1 mM
same,Symptoms of Pcb infection in potato plants,[3],reduce symptom of Pcb infection
same,Light sensitivity on storage,[4],must be stored in the dark to prevent autodegradation
same,Ferrous iron,[4]; 1 Day after complex formation,100 mM
same,Total iron,[4]; 1 Day after complex formation,100 mM
same,Ferrous iron,[4]; [7],99 mM
same,Total iron,[4]; [7],100 mM
same,Ferrous iron,[4]; [8],98 mM
same,Total iron,[4]; [8],100 mM
same,Stability of solutions of the complex,[4],stable for up to six months
ferric tri-pyruvate [ferric tri-pyruvate complex],"Fenton activity (loss of blue color, brown precipitate)","[1]; 14-day old reduced complex, 50 mM + 40% H2O2, 1 hour at ambient temperature",significant Fenton activity
same,Ferric iron,[5]; [9],>49 mM
same,Ferrous iron,[5]; [9],<1 mM
same,Total iron,[5]; [9],50 mM
same,Oxidation state of the iron upon formation of the complex,[5]; 50 mM solution,essentially all the iron was in the ferric oxidation state
same,Ferric iron,[5]; [10],39 mM
same,Ferrous iron,[5]; [10],11 mM
same,Total iron,[5]; [10],50 mM
same,Ferric iron,[5]; [11],2 mM
same,Ferrous iron,[5]; [11],48 mM
same,Total iron,[5]; [11],50 mM
same,Ferric iron,[5]; [12],2 mM
same,Ferrous iron,[5]; [12],48 mM
same,Total iron,[5]; [12],50 mM
same,Reduction of ferric ions to ferrous,[5]; after one week (7-day period),essentially all iron is in the ferrous oxidation state; also recorded: essentially all the ferric iron was reduced to the ferrous oxidation state
same,Reduction of ferric ions to ferrous,"[5]; within one day after formation of the complex, ambient conditions",approximately one-fifth of ferric ions have been reduced to ferrous
ferrous di-pyruvate,"Fenton activity (loss of blue color, brown precipitate)",[1]; [6],exhibited Fenton activity
same,"Fenton activity (loss of blue color, brown precipitate)","[1]; 1 ml 50 mM complex + 1 ml 40% H2O2, 0.1% (w/v) methylene blue, 1 hour at ambient temperature, listed as ferrous di-pyruvate complex",significant Fenton activity
same,Sterilization of surfaces contaminated with B. subtilis spores,spores of B. subtilis,sterilizes the surfaces
same,Ferrous iron,[2],49.5 mM
same,Total iron,[2],50 mM
same,Ferric iron,[2],<1 mM
same,Symptoms of Pcb infection in potato plants,[3],reduce symptom of Pcb infection
same,Ferrous iron,[4]; 1 Day after complex formation,99 mM
same,Total iron,[4]; 1 Day after complex formation,100 mM
same,Ferrous iron,[4]; [7],97 mM
same,Total iron,[4]; [7],100 mM
same,Ferrous iron,[4]; [8],98 mM
same,Total iron,[4]; [8],100 mM
same,Stability of solutions of the complex,[4],stable for up to six months
same,Cell killing of B. subtilis cells or spores (viable CFU),Bacillus subtilis,higher levels of cell killing
same,Number of leaf and root samples containing C. liberibacter spp nucleic acid (PCR),C. liberibacter spp,reduces the number of leaf and root samples containing C. liberibacter spp nucleic acid
same,Number of plants showing signs of chlorosis,C. liberibacter spp,reduces the number of plants showing signs of chlorosis
same,Effect on growth of X. campestris (in words),"X. campestris; Table 5, most pronounced after preincubation with ascorbate and copper",able to block the growth of X. campestris
same,Killing of X. campestris (in words),"X. campestris; Table 6, most pronounced after preincubation with ascorbate and copper",able to kill X. campestris
same,CFU,"X. campestris; no preincubation, addition 5 mM ascorbate + 5 μM Cu(II) + 0.25 mM FDP, 36 hour treatment",2.28 × 10^9 CFU per ml
same,A600,"X. campestris; no preincubation, addition 5 mM ascorbate + 5 μM Cu(II) + 0.25 mM FDP",0.420
same,A600,"X. campestris; no preincubation, addition 5 mM ascorbate + 0.25 mM FDP",0.447
"mono-ferrous di-citrate [mono-ferrous di-citrate complex, reference compound]","Fenton activity (loss of blue color, brown precipitate)",[1]; [6],little to no Fenton activity
"mono-ferrous mono-citrate [mono-ferrous mono-citrate complex, reference compound]","Fenton activity (loss of blue color, brown precipitate)",[1]; [6],little to no Fenton activity
